{"source": "the supplement of paper PMC10307832", "assay_in_all_cases": "relative viability (nuclei count vs DMSO), 5 days (fraction); higher = more cells survive", "key": {"ABC-1": {"system": "ABC-1", "summary_of_the_method": "(§1)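 A single step with final 0.05% Triton X-100, 1% formaldehyde and 1 ug/ml Hoechst fixed the cells and stained nuclei 5 days after treatment. Lung cancer cell lines in 1536-well plates had been treated by pin tool the day after seeding with one drug alone or a fixed anchor-drug dose plus five library-drug doses (not always all listed) in √10 steps, and nuclei were counted on 4× images. Relative viability is the ratio of nuclei in treated wells to nuclei in vehicle wells, taken as the median of duplicate plates.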"}, "BEN": {"system": "BEN", "summary_of_the_method": "as §1"}, "EPLC-272H": {"system": "EPLC-272H", "summary_of_the_method": "as §1"}, "HCC-827": {"system": "HCC-827", "summary_of_the_method": "as §1"}, "HOP-62": {"system": "HOP-62", "summary_of_the_method": "as §1"}, "LU99A": {"system": "LU99A", "summary_of_the_method": "as §1"}, "NCI-H1355": {"system": "NCI-H1355", "summary_of_the_method": "as §1"}, "NCI-H1563": {"system": "NCI-H1563", "summary_of_the_method": "as §1"}, "NCI-H1666": {"system": "NCI-H1666", "summary_of_the_method": "as §1"}, "NCI-H1792": {"system": "NCI-H1792", "summary_of_the_method": "as §1"}, "NCI-H1975": {"system": "NCI-H1975", "summary_of_the_method": "as §1"}, "NCI-H23": {"system": "NCI-H23", "summary_of_the_method": "as §1"}, "NCI-H2405": {"system": "NCI-H2405", "summary_of_the_method": "as §1"}, "NCI-H3122": {"system": "NCI-H3122", "summary_of_the_method": "as §1"}, "NCI-H322M": {"system": "NCI-H322M", "summary_of_the_method": "as §1"}, "NCI-H520": {"system": "NCI-H520", "summary_of_the_method": "as §1"}, "NCI-H596": {"system": "NCI-H596", "summary_of_the_method": "as §1"}, "NCI-H647": {"system": "NCI-H647", "summary_of_the_method": "as §1"}, "NCI-H727": {"system": "NCI-H727", "summary_of_the_method": "as §1"}, "NCI-H838": {"system": "NCI-H838", "summary_of_the_method": "as §1"}, "PC-14": {"system": "PC-14", "summary_of_the_method": "as §1"}, "UMC-11": {"system": "UMC-11", "summary_of_the_method": "as §1"}}, "data": [{"smiles": "CCCCCCCCCCCC1=C(O)C(=O)C=C(O)C1=O", "note": "[Embelin] + CC(C)C[C@H](NC(=O)[C@H](Cc1ccccc1)NC(=O)c1cnccn1)B(O)O [Bortezomib] (partner 0.002 µM)", "values": [{"measurement": "relative viability", "setting": "ABC-1; first compound 0.08 µM", "result": 0.299}, {"measurement": "relative viability", "setting": "ABC-1; first compound 0.8 µM", "result": 0.371}, {"measurement": "relative viability", "setting": "ABC-1; first compound 2.53 µM", "result": 0.252}, {"measurement": "relative viability", "setting": "ABC-1; first compound 8 µM", "result": 0.257}, {"measurement": "relative viability", "setting": "BEN; first compound 0.08 µM", "result": 0.85}, {"measurement": "relative viability", "setting": "BEN; first compound 0.8 µM", "result": 1.04}, {"measurement": "relative viability", "setting": "BEN; first compound 2.53 µM", "result": 0.941}, {"measurement": "relative viability", "setting": "BEN; first compound 8 µM", "result": 0.899}, {"measurement": "relative viability", "setting": "EPLC-272H; first compound 0.08 µM", "result": 0.804}, {"measurement": "relative viability", "setting": "EPLC-272H; first compound 0.8 µM", "result": 1.07}, {"measurement": "relative viability", "setting": "EPLC-272H; first compound 2.53 µM", "result": 1.17}, {"measurement": "relative viability", "setting": "EPLC-272H; first compound 8 µM", "result": 0.86}, {"measurement": "relative viability", "setting": "HCC-827; first compound 0.08 µM", "result": 1.12}, {"measurement": "relative viability", "setting": "HCC-827; first compound 0.8 µM", "result": 1.07}, {"measurement": "relative viability", "setting": "HCC-827; first compound 2.53 µM", "result": 1.06}, {"measurement": "relative viability", "setting": "HCC-827; first compound 8 µM", "result": 1.17}, {"measurement": "relative viability", "setting": "HOP-62; first compound 0.08 µM", "result": 0.924}, {"measurement": "relative viability", "setting": "HOP-62; first compound 0.8 µM", "result": 0.846}, {"measurement": "relative viability", "setting": "HOP-62; first compound 2.53 µM", "result": 1.15}, {"measurement": "relative viability", "setting": "HOP-62; first compound 8 µM", "result": 0.727}, {"measurement": "relative viability", "setting": "LU99A; first compound 0.08 µM", "result": 1.37}, {"measurement": "relative viability", "setting": "LU99A; first compound 0.8 µM", "result": 1.23}, {"measurement": "relative viability", "setting": "LU99A; first compound 2.53 µM", "result": 1.1}, {"measurement": "relative viability", "setting": "LU99A; first compound 8 µM", "result": 1.07}, {"measurement": "relative viability", "setting": "NCI-H1355; first compound 0.08 µM", "result": 1.16}, {"measurement": "relative viability", "setting": "NCI-H1355; first compound 0.8 µM", "result": 1.24}, {"measurement": "relative viability", "setting": "NCI-H1355; first compound 2.53 µM", "result": 1.21}, {"measurement": "relative viability", "setting": "NCI-H1355; first compound 8 µM", "result": 1.02}, {"measurement": "relative viability", "setting": "NCI-H1563; first compound 0.08 µM", "result": 1.06}, {"measurement": "relative viability", "setting": "NCI-H1563; first compound 0.8 µM", "result": 0.953}, {"measurement": "relative viability", "setting": "NCI-H1563; first compound 2.53 µM", "result": 0.787}, {"measurement": "relative viability", "setting": "NCI-H1563; first compound 8 µM", "result": 0.753}, {"measurement": "relative viability", "setting": "NCI-H1666; first compound 0.08 µM", "result": 0.655}, {"measurement": "relative viability", "setting": "NCI-H1666; first compound 0.8 µM", "result": 1.05}, {"measurement": "relative viability", "setting": "NCI-H1666; first compound 2.53 µM", "result": 0.922}, {"measurement": "relative viability", "setting": "NCI-H1666; first compound 8 µM", "result": 0.829}, {"measurement": "relative viability", "setting": "NCI-H1792; first compound 0.08 µM", "result": 0.93}, {"measurement": "relative viability", "setting": "NCI-H1792; first compound 0.8 µM", "result": 1}, {"measurement": "relative viability", "setting": "NCI-H1792; first compound 2.53 µM", "result": 1.09}, {"measurement": "relative viability", "setting": "NCI-H1792; first compound 8 µM", "result": 1.03}, {"measurement": "relative viability", "setting": "NCI-H1975; first compound 0.08 µM", "result": 0.45}, {"measurement": "relative viability", "setting": "NCI-H1975; first compound 0.8 µM", "result": 0.432}, {"measurement": "relative viability", "setting": "NCI-H1975; first compound 2.53 µM", "result": 0.372}, {"measurement": "relative viability", "setting": "NCI-H1975; first compound 8 µM", "result": 0.367}, {"measurement": "relative viability", "setting": "NCI-H23; first compound 0.08 µM", "result": 0.971}, {"measurement": "relative viability", "setting": "NCI-H23; first compound 0.8 µM", "result": 1.06}, {"measurement": "relative viability", "setting": "NCI-H23; first compound 2.53 µM", "result": 1.19}, {"measurement": "relative viability", "setting": "NCI-H23; first compound 8 µM", "result": 1.23}, {"measurement": "relative viability", "setting": "NCI-H2405; first compound 0.08 µM", "result": 1.03}, {"measurement": "relative viability", "setting": "NCI-H2405; first compound 0.8 µM", "result": 1.03}, {"measurement": "relative viability", "setting": "NCI-H2405; first compound 2.53 µM", "result": 1.02}, {"measurement": "relative viability", "setting": "NCI-H2405; first compound 8 µM", "result": 1.01}, {"measurement": "relative viability", "setting": "NCI-H3122; first compound 0.08 µM", "result": 0.978}, {"measurement": "relative viability", "setting": "NCI-H3122; first compound 0.8 µM", "result": 1.03}, {"measurement": "relative viability", "setting": "NCI-H3122; first compound 2.53 µM", "result": 0.916}, {"measurement": "relative viability", "setting": "NCI-H3122; first compound 8 µM", "result": 0.992}, {"measurement": "relative viability", "setting": "NCI-H322M; first compound 0.08 µM", "result": 1.21}, {"measurement": "relative viability", "setting": "NCI-H322M; first compound 0.8 µM", "result": 1.34}, {"measurement": "relative viability", "setting": "NCI-H322M; first compound 2.53 µM", "result": 1.44}, {"measurement": "relative viability", "setting": "NCI-H322M; first compound 8 µM", "result": 1.29}, {"measurement": "relative viability", "setting": "NCI-H520; first compound 0.08 µM", "result": 0.848}, {"measurement": "relative viability", "setting": "NCI-H520; first compound 0.8 µM", "result": 0.255}, {"measurement": "relative viability", "setting": "NCI-H520; first compound 2.53 µM", "result": 0.668}, {"measurement": "relative viability", "setting": "NCI-H520; first compound 8 µM", "result": 0.511}, {"measurement": "relative viability", "setting": "NCI-H596; first compound 0.08 µM", "result": 0.955}, {"measurement": "relative viability", "setting": "NCI-H596; first compound 0.8 µM", "result": 1.17}, {"measurement": "relative viability", "setting": "NCI-H596; first compound 2.53 µM", "result": 1.3}, {"measurement": "relative viability", "setting": "NCI-H596; first compound 8 µM", "result": 0.87}, {"measurement": "relative viability", "setting": "NCI-H647; first compound 0.08 µM", "result": 1.08}, {"measurement": "relative viability", "setting": "NCI-H647; first compound 0.8 µM", "result": 1.28}, {"measurement": "relative viability", "setting": "NCI-H647; first compound 2.53 µM", "result": 1.43}, {"measurement": "relative viability", "setting": "NCI-H647; first compound 8 µM", "result": 0.929}, {"measurement": "relative viability", "setting": "NCI-H727; first compound 0.08 µM", "result": 0.813}, {"measurement": "relative viability", "setting": "NCI-H727; first compound 0.8 µM", "result": 0.997}, {"measurement": "relative viability", "setting": "NCI-H727; first compound 2.53 µM", "result": 1.02}, {"measurement": "relative viability", "setting": "NCI-H727; first compound 8 µM", "result": 0.798}, {"measurement": "relative viability", "setting": "NCI-H838; first compound 0.08 µM", "result": 1.38}, {"measurement": "relative viability", "setting": "NCI-H838; first compound 0.8 µM", "result": 1.12}, {"measurement": "relative viability", "setting": "NCI-H838; first compound 2.53 µM", "result": 0.72}, {"measurement": "relative viability", "setting": "NCI-H838; first compound 8 µM", "result": 0.936}, {"measurement": "relative viability", "setting": "PC-14; first compound 0.08 µM", "result": 0.858}, {"measurement": "relative viability", "setting": "PC-14; first compound 0.8 µM", "result": 0.899}, {"measurement": "relative viability", "setting": "PC-14; first compound 2.53 µM", "result": 0.84}, {"measurement": "relative viability", "setting": "PC-14; first compound 8 µM", "result": 0.87}, {"measurement": "relative viability", "setting": "UMC-11; first compound 0.08 µM", "result": 0.771}, {"measurement": "relative viability", "setting": "UMC-11; first compound 0.8 µM", "result": 0.966}, {"measurement": "relative viability", "setting": "UMC-11; first compound 2.53 µM", "result": 0.896}, {"measurement": "relative viability", "setting": "UMC-11; first compound 8 µM", "result": 0.547}]}]}
